Here are results for ten molecules from PubChem BioAssay AID248 (DTP/NCI, 2004).

Where “and” joins values, the source holds several entries; their conditions need not be identical. Equal values may be shown once. Toxic doses and inconclusive results are not listed.

In the experiment the test system is L1210 leukemia ip in BDF1 mice, survival T/C. Description: NCI In Vivo Anticancer Drug Screen. Data for tumor model L1210 Leukemia (intraperitoneal) in B6D2F1 (BDF1) mice. The conditions noted are these: endpoint: mean survival time, higher = longer survival. Summed up:
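Survival endpoint. Drug-treated group vs vehicle group, expressed as T divided by C. Tumor passaged by transplantation.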

[1] abbreviates: dose: 25.0 mg/kg/injection, schedule: Q01DX009 (ip), vehicle: Klucel (hydroxypropylcellulose) (HPC).
Where [2] appears, read: dose: 50.0 mg/kg/injection, schedule: Q01DX009 (ip), vehicle: Klucel (hydroxypropylcellulose) (HPC).
[3] abbreviates: dose: 100.0 mg/kg/injection, schedule: Q01DX009 (ip), vehicle: Klucel (hydroxypropylcellulose) (HPC).
[4] abbreviates: dose: 100.0 mg/kg/injection, schedule: Q04DX003 (ip), vehicle: saline with Tween-80.
[5] abbreviates: dose: 200.0 mg/kg/injection, schedule: Q04DX003 (ip), vehicle: saline with Tween-80.

As for `O=C(NCCCCCCCCCCNC(=O)Nc1ccc(C2=NCCN2)cc1)Nc1ccc(C2=NCCN2)cc1`, the T/C was 98 % of control (dose: 62.5 mg/kg/injection, schedule: Q01DX Z (ip), vehicle: carboxymethylcellulose (CMC)); 98 % of control (dose: 125.0 mg/kg/injection, schedule: Q01DX Z (ip), vehicle: carboxymethylcellulose (CMC)); 106 % of control (dose: 250.0 mg/kg/injection, schedule: Q01DX Z (ip), vehicle: carboxymethylcellulose (CMC)); 114 % of control (dose: 500.0 mg/kg/injection, schedule: Q01DX Z (ip), vehicle: carboxymethylcellulose (CMC)).

Turning to `CC[N+](CC)(CC)CCCC[N+](CC)(CC)CC`, the T/C (dose: 12.5 mg/kg/injection, schedule: Q01DX009 (ip), vehicle: water) was 100 % of control; the T/C (dose: 25.0 mg/kg/injection, schedule: Q01DX009 (ip), vehicle: water) is 96 % of control; the T/C (dose: 50.0 mg/kg/injection, schedule: Q01DX009 (ip), vehicle: water) was 90 % of control.

For `N#Cc1cc(Cl)c2c(c1Cl)Nc1c(Cl)ccc(Cl)c1S2`, the T/C reads like this: (dose: 50.0 mg/kg/injection, schedule: Q01DX001 (ip), vehicle: saline) 96 % of control; (dose: 100.0 mg/kg/injection, schedule: Q01DX001 (ip), vehicle: saline) 96 % of control; (dose: 200.0 mg/kg/injection, schedule: Q01DX001 (ip), vehicle: saline) 96 % of control; (dose: 400.0 mg/kg/injection, schedule: Q01DX001 (ip), vehicle: saline) 102 % of control.

Consider `CC(=O)OC1C=C2CCC3C(CCC4(C)C(OC(C)=O)CCC34)C2(C)CC1` (stereo not given), for which the T/C by setting is: (dose: 12.5 mg/kg/injection, schedule: Q01DX009 (ip), vehicle: Klucel (hydroxypropylcellulose) (HPC)) 92 % of control; under setting [1], 92 % of control; under setting [2], 90 % of control; (dose: 75.0 mg/kg/injection, schedule: Q01DX009 (ip), vehicle: Klucel (hydroxypropylcellulose) (HPC)) 101 % of control; (dose: 115.0 mg/kg/injection, schedule: Q01DX009 (ip), vehicle: Klucel (hydroxypropylcellulose) (HPC)) 98 % of control; (dose: 170.0 mg/kg/injection, schedule: Q01DX009 (ip), vehicle: Klucel (hydroxypropylcellulose) (HPC)) 95 % of control.

Turning to `O/N=c1/ccn(O)c2ccccc12`, the T/C (dose: 0.5 mg/kg/injection, schedule: Q03HX008 (ip), vehicle: other) is 114 % of control; the T/C (dose: 0.51 mg/kg/injection, schedule: Q01DX009 (ip), vehicle: saline) is 111 % of control and 119 % of control; the T/C (dose: 0.78 mg/kg/injection, schedule: Q01DX009 (ip), vehicle: saline) is 116 % of control; the T/C (dose: 1.0 mg/kg/injection, schedule: Q01DX009 (sc), vehicle: other) was 114 % of control; the T/C (dose: 1.17 mg/kg/injection, schedule: Q01DX009 (ip), vehicle: saline) is 110 % of control; the T/C (dose: 1.7 mg/kg/injection, schedule: Q01DX015 (ip), vehicle: saline) is 108 % of control. Moreover, the T/C was 113 % of control (dose: 2.0 mg/kg/injection, schedule: Q01DX009 (sc), vehicle: other); 122 % of control (dose: 2.0 mg/kg/injection, schedule: Q01DX015 (ip), vehicle: saline); 151 % of control (dose: 2.0 mg/kg/injection, schedule: Q03HX008 (ip), vehicle: other); 118 % of control (dose: 4.0 mg/kg/injection, schedule: Q01DX001 (sc), vehicle: other); 88 % of control (dose: 4.0 mg/kg/injection, schedule: Q01DX009 (ip), vehicle: other); 98 % of control (dose: 4.0 mg/kg/injection, schedule: Q01DX009 (oral), vehicle: other). Further, the T/C (dose: 4.0 mg/kg/injection, schedule: Q01DX009 (sc), vehicle: other) was 104 % of control; the T/C (dose: 4.0 mg/kg/injection, schedule: Q03HX016 (ip), vehicle: other) was 87 % of control; the T/C (dose: 4.4 mg/kg/injection, schedule: Q01DX001 (ip), vehicle: other) was 113 % of control; the T/C (dose: 6.0 mg/kg/injection, schedule: Q01DX015 (ip), vehicle: saline) is 123 % of control; the T/C (dose: 6.6 mg/kg/injection, schedule: Q01DX001 (ip), vehicle: other) was 113 % of control; the T/C (dose: 8.0 mg/kg/injection, schedule: Q01DX001 (ip), vehicle: other) is 108 % of control. In addition, the T/C reads like this: (dose: 8.0 mg/kg/injection, schedule: Q01DX001 (oral), vehicle: other) 102 % of control; (dose: 8.0 mg/kg/injection, schedule: Q01DX001 (sc), vehicle: other) 108 % of control; (dose: 8.0 mg/kg/injection, schedule: Q01DX005 (ip), vehicle: other) 93 % of control; (dose: 8.0 mg/kg/injection, schedule: Q01DX009 (oral), vehicle: other) 108 % of control; (dose: 8.0 mg/kg/injection, schedule: Q01DX009 (sc), vehicle: other) 120 % of control; (dose: 8.0 mg/kg/injection, schedule: Q04DX003 (ip), vehicle: other) 110 % of control. Moreover, the T/C (dose: 8.0 mg/kg/injection, schedule: Q08DX002 (ip), vehicle: other) was 114 % of control; the T/C (dose: 9.0 mg/kg/injection, schedule: Q01DX015 (ip), vehicle: saline) was 87 % of control; the T/C (dose: 16.0 mg/kg/injection, schedule: Q01DX001 (oral), vehicle: other) is 103 % of control; the T/C (dose: 16.0 mg/kg/injection, schedule: Q01DX001 (sc), vehicle: other) was 96 % of control; the T/C (dose: 16.0 mg/kg/injection, schedule: Q01DX009 (oral), vehicle: other) is 103 % of control; the T/C (dose: 25.0 mg/kg/injection, schedule: Q04DX003 (ip), vehicle: saline) is 88 % of control. For the same molecule, the T/C is 113 % of control (dose: 32.0 mg/kg/injection, schedule: Q01DX001 (oral), vehicle: other); 118 % of control (dose: 32.0 mg/kg/injection, schedule: Q01DX001 (sc), vehicle: other); 103 % of control (dose: 32.0 mg/kg/injection, schedule: Q01DX009 (oral), vehicle: other); 109 % of control (dose: 40.0 mg/kg/injection, schedule: Q01DX001 (ip), vehicle: other); 104 % of control (dose: 64.0 mg/kg/injection, schedule: Q01DX001 (oral), vehicle: other); 89 % of control (dose: 80.0 mg/kg/injection, schedule: Q01DX001 (ip), vehicle: other). Besides, the T/C (dose: 128.0 mg/kg/injection, schedule: Q01DX001 (oral), vehicle: other) was 103 % of control.

As to `c1ccc(OCc2ccc(COc3ccccc3)cc2)cc1`, the T/C reads like this: under setting [1], 98 % of control; (dose: 25.0 mg/kg/injection, schedule: Q04DX003 (ip), vehicle: Klucel (hydroxypropylcellulose) (HPC)) 97 % of control; under setting [2], 92 % of control; (dose: 50.0 mg/kg/injection, schedule: Q04DX003 (ip), vehicle: Klucel (hydroxypropylcellulose) (HPC)) 94 % of control; under setting [3], 95 % of control; (dose: 100.0 mg/kg/injection, schedule: Q04DX003 (ip), vehicle: Klucel (hydroxypropylcellulose) (HPC)) 92 % of control.

As to `CCCCCCCCCC(=O)N/N=C\c1cccc2ccccc12`, the T/C is 90 % of control under setting [1], 103 % of control under setting [2] and 87 % of control under setting [3].

For the molecule `O=C(CBr)N1CCC2(CC1)SSC1(CCN(C(=O)CBr)CC1)S2`, the T/C (dose: 50.0 mg/kg/injection, schedule: Q01DX009 (ip), vehicle: saline with Tween-80) was 96 % of control; the T/C (dose: 100.0 mg/kg/injection, schedule: Q01DX009 (ip), vehicle: saline with Tween-80) was 91 % of control; the T/C under setting [4] is 102 % of control; the T/C under setting [5] was 105 % of control.

Turning to `C(/C=C/C=C/Nc1ccccc1)=Nc1ccccc1`, the T/C by setting is: under setting [4], 100 % of control; under setting [5], 104 % of control; (dose: 400.0 mg/kg/injection, schedule: Q04DX003 (ip), vehicle: saline with Tween-80) 92 % of control.

As for `CC1(C)N=C(N)N=C(N)N1c1ccc(CCCC(=O)Nc2ccc(S(=O)(=O)F)cc2)cc1`, the T/C is, setting by setting: (dose: 0.8 mg/kg/injection, schedule: Q01DX009 (ip), vehicle: saline) 97 % of control; (dose: 4.0 mg/kg/injection, schedule: Q01DX009 (ip), vehicle: saline) 98 % of control; (dose: 20.0 mg/kg/injection, schedule: Q01DX009 (ip), vehicle: saline) 104 % of control; (dose: 100.0 mg/kg/injection, schedule: Q01DX009 (ip), vehicle: saline) 114 % of control; (dose: 500.0 mg/kg/injection, schedule: Q01DX009 (ip), vehicle: saline) 123 % of control.
